In publication PMC9024521, “4-Heteroaryl Substituted Amino-3,5-Dicyanopyridines as New Adenosine Receptor Ligands: Novel Insights on Structure-Activity Relationships and Perspectives” (Pharmaceuticals, 2022):

Experiments:
hA1AR [1] = biological target: T1, hA1AR (Homo sapiens, UniProt P30542); assay: Competition binding, [3H]DPCPX, hA1 CHO cell membranes; conditions: displacement of [3H]DPCPX, hA1 CHO cells; mean ± SEM of four assays
T1 construct: host or cells: CHO cells
T1 sequence (P30542 1-326): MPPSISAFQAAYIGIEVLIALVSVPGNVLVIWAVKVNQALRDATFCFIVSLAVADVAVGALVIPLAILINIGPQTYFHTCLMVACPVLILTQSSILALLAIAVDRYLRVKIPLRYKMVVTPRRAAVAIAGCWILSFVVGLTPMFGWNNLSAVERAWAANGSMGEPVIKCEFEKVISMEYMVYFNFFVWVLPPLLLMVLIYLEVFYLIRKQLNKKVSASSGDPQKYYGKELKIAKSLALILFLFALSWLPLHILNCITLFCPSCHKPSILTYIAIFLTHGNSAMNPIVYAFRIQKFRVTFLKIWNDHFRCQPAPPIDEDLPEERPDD
Protocol: (§1) CHO cells transfected with hA1, hA2A, hA2B and hA3 ARs (Perkin Elmer, Boston, MA, USA) were grown adherently and maintained in Dulbecco’s modified Eagle’s medium with nutrient mixture F12, containing 10% fetal calf serum, penicillin (100 U/mL), streptomycin (100 μg/mL), L-glutamine (2 mM) and geneticine (G418; 0.2 mg/mL), at 37 °C, in 5% CO2/95% air, until their use in cAMP assays. For membrane preparation, the culture medium was removed, and the cells were washed with phosphate-buffered saline and scraped off T75 flasks in ice-cold hypotonic buffer (5 mM Tris HCl, 1 mM EDTA, pH 7.4). The cell suspension was homogenized with a Polytron, centrifuged for 30 min at 40,000× g, at 4 °C, and the resulting membrane pellet was used for competition binding experiments.
(§2) All synthesized compounds were tested for their affinity to hA1, hA2A and hA3 ARs. Competition experiments to hA1AR were carried out by incubating 1 nM [^3H]-8-cyclopentyl-1,3-dipropylxanthine ([^3H]-DPCPX) with membrane suspension (50 μg of protein/100 μL) and different concentrations of the examined compounds at 25 °C for 90 min in 50 mM Tris HCl, pH 7.4. Non-specific binding was defined as binding in the presence of 1 μM DPCPX and was always <10% of the total binding. Inhibition experiments to hA2A ARs were performed by incubating the radioligand [^3H]-4-(-2-[7-amino-2-{2-furyl}{1,2,4}triazolo{2,3-a} {1,3,5}triazin-5-yl-amino]ethyl)phenol ([^3H]-ZM241385) (1 nM) with the membrane suspension (50 μg of protein/100 μL) and different concentrations of the examined compounds for 60 min, at 4 °C, in 50 mM Tris HCl (pH 7.4), 10 mM MgCl2. Non-specific binding was determined in the presence of ZM241385 (1 μM) and was about 20% of the total binding. Competition binding experiments to A3ARs were carried out by incubating the membrane suspension (50 μg of protein/100 μL) with 0.5 nM [^125I]-N6-(4-aminobenzyl)-N-methylcarboxamidoadenosine ([^125I]-ABMECA) in the presence of different concentrations of the examined compounds for an incubation time of 120 min, at 4 °C, in 50 mM Tris HCl (pH 7.4), 10 mM MgCl2, 1 mM EDTA. Non-specific binding was defined as binding in the presence of 1 μM ABMECA and was always <10% of the total binding. Bound and free radioactivity were separated by filtering the assay mixture through Whatman GF/B glass-fiber filters, using a Brandel cell harvester (Brandel Instruments, Unterföhring, Germany). The filter bound radioactivity was counted by Packard Tri Carb 2810 TR scintillation counter (Perkin Elmer).
(§3) The protein concentration was determined according to a Bio-Rad method, with bovine albumin as a standard reference. Inhibitory binding constant (Ki) values were calculated from those of IC50 according to the Cheng–Prusoff equation, Ki = IC50/(1 + [C*]/KD*), where [C*] is the concentration of the radioligand, and KD* its dissociation constant. Ki and IC50 values were calculated by non-linear regression analysis, using the equation for a sigmoid concentration-response curve (Graph-PAD Prism, San Diego, CA, USA).

hA2AAR = biological target: T2, hA2AAR (Homo sapiens, UniProt P29274); assay: Competition binding, [3H]ZM241385, hA2A CHO cell membranes; conditions: displacement of [3H]ZM241385, hA2A CHO cells; mean ± SEM of four assays
T2 construct: host or cells: CHO cells
T2 sequence (P29274 whole entry): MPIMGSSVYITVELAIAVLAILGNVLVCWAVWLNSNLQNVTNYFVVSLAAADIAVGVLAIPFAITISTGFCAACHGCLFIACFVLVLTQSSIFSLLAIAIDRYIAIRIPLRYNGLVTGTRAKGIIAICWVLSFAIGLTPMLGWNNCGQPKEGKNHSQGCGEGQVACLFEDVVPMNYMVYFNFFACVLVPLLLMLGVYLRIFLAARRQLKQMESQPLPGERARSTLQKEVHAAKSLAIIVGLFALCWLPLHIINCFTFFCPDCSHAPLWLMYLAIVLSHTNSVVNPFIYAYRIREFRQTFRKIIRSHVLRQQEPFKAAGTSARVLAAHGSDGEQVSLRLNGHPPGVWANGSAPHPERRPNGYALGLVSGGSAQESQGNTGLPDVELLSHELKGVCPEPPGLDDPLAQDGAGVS
Protocol: as §1, §2, §3

hA3AR = biological target: T3, hA3AR (Homo sapiens, UniProt P0DMS8); assay: Competition binding, [125I]AB-MECA, hA3 CHO cell membranes; conditions: for Ki: displacement of [125I]AB-MECA, hA3 CHO cells, mean ± SEM of four assays; for inhibition at 1 µM: 1 µM compound, [125I]AB-MECA binding, read-out: I% hA3 (percentage of inhibition)
T3 construct: host or cells: CHO cells
T3 sequence (P0DMS8 1-318): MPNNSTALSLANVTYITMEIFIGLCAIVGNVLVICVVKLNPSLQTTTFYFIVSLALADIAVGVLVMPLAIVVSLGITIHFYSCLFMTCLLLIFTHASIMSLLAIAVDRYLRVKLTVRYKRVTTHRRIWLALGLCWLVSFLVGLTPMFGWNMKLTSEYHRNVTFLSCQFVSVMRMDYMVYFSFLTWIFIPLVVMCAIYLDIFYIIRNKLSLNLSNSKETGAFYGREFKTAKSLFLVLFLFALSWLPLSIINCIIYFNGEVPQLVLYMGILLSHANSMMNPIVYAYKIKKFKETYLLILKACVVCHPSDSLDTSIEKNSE
Protocol: as §1, §2, §3

hA2B AR [2] = biological target: T4, hA2B AR (Homo sapiens, UniProt P29275); assay: cAMP assay in CHO cells expressing hA2B AR (stimulation of cAMP production); type: cell-based; conditions: for Emax at 1 µM: CHO, 1 µM compound, in comparison with NECA (1 µM = 100%), read-out: Efficacy hA2B (cAMP assay) (converted); for EC50: hA2B CHO cells, mean ± SEM of four assays
T4 construct: host or cells: CHO cells
T4 sequence (P29275 1-332): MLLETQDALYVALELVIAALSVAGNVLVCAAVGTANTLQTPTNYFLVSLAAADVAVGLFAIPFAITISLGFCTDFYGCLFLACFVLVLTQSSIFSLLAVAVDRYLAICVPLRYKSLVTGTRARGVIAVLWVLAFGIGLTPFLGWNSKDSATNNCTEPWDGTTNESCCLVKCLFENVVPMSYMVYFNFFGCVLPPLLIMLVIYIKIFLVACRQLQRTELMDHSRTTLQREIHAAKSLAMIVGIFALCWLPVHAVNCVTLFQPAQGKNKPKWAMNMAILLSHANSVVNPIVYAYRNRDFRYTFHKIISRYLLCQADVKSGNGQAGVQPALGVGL
Protocol: (§4) The amino-3,5-dicyanopyridines 1–21 were tested for their affinity at hA1, hA2A and hA3 ARs, stably transfected in Chinese Hamster Ovary (CHO) cells. Moreover, they were also studied as hA2B agonists by evaluating their stimulatory effect on cAMP production in CHO cells, stably expressing the hA2B AR. […] Due to their interesting pan profile, both compounds 1 and 5 were evaluated as AR agonists also at the hA2A and hA3 subtypes.
as §1
(§5) CHO cells transfected with hAR subtypes were washed with phosphate-buffered saline, detached with tripsine and centrifuged for 10 min at 200× g. Cells were seeded in a 96-well white half-area microplate (Perkin Elmer, Boston, USA) in a stimulation buffer composed of Hank Balanced Salt Solution, 5 mM HEPES, 0.5 mM Ro 20–1724, 0.1% BSA. The cAMP levels were then quantified by using the AlphaScreen cAMP Detection Kit (Perkin Elmer, Boston, MA, USA), following the manufacturer’s instructions. At the end of the experiments, the plates were read with a Perkin Elmer EnSight Multimode Plate Reader.

hA1AR [3] = biological target: T1, hA1AR; assay: Modulation of Forskolin-stimulated cAMP levels in hA1 CHO cells; type: cell-based; conditions: for IC50: footnote d, vs CCPA 10 nM; for hA1AR Efficacy: normalized: CCPA full agonist = 100%, DPCPX inverse agonist = −100%; for hA1AR Profile: pharmacological profile in cAMP assay
Protocol: as §4, §1, §5

hA2B AR [4] = biological target: T4, hA2B AR; parameters: method as in PMID 15239649; conditions: in comparison with NECA; ref [2]; cited from earlier work

Cl.N#Cc1c(N)nc(SCc2cnc[nH]2)c(C#N)c1-c1ccco1 [Compound 11, 2-Amino-4-(furan-2-yl)-6-[(1H-imidazol-5-ylmethyl)sulfanyl]pyridine-3,5-dicarbonitrile hydrochloride]
Ki (hA1AR [1]): 51 ± 4 nM
Ki (hA2AAR): 442 ± 37 nM
Ki (hA3AR): 849 ± 74 nM
Emax at 1 µM (hA2B AR [2]): 4%
EC50 (hA2B AR [2]): > 1000 nM
IC50 (hA1AR [3]): 125 ± 11 nM
hA1AR Efficacy (hA1AR [3]): 0.82 ± 0.07%
hA1AR Profile (hA1AR [3]): Antagonist
melting point: 147 to 148 °C

N#Cc1c(N)nc(SCC(=O)NCCc2cnc[nH]2)c(C#N)c1-c1ccco1 [Compound 16, 2-{[6-Amino-3,5-dicyano-4-(furan-2-yl)pyridin-2-yl]sulfanyl}-N-[2-(1H-imidazol-5-yl)ethyl]acetamide]
Ki (hA1AR [1]): 30 ± 3 nM
Ki (hA2AAR): 138 ± 11 nM
inhibition at 1 µM (hA3AR): 30%
Emax at 1 µM (hA2B AR [2]): 1%
EC50 (hA2B AR [2]): > 1000 nM
EC50 (hA1AR [3]; footnote c, mean ± SEM of four experiments, read-out: hA1AR EC50 or IC50, potency to modulate Forskolin-stimulated cAMP levels): 59 ± 4 nM
hA1AR Efficacy (hA1AR [3]): −43 ± 4%
hA1AR Profile (hA1AR [3]): Inverse Agonist
melting point: 223 to 226 °C

N#Cc1c(N)nc(NCc2ncc[nH]2)c(C#N)c1-c1ccco1 [Compound 12, 2-Amino-4-(furan-2-yl)-6-[(1H-imidazol-2-ylmethyl)amino]pyridine-3,5-dicarbonitrile]
Ki (hA1AR [1]): 315 ± 28 nM
Ki (hA2AAR): 157 ± 14 nM
inhibition at 1 µM (hA3AR): 16%
Emax at 1 µM (hA2B AR [2]): 3%
EC50 (hA2B AR [2]): > 1000 nM
IC50 (hA1AR [3]): 768 ± 67 nM
hA1AR Efficacy (hA1AR [3]): 1.31 ± 0.11%
hA1AR Profile (hA1AR [3]): Antagonist
melting point: 265 to 266 °C

N#Cc1c(N)nc(SCc2ncc[nH]2)c(C#N)c1-c1ccccc1 [LUF5833, 2-amino-6-[(1H-imidazol-2-ylmethyl)sulfanyl]-4-phenylpyridine-3,5-dicarbonitrile]
Efficacy hA2B (cAMP assay) (hA2B AR [4]): 81%

N#Cc1c(N)nc(SCc2ncc[nH]2)c(C#N)c1-c1ccsc1 [Compound 6, 2-Amino-6-[(1H-imidazol-2-ylmethyl)sulfanyl]-4-(thiophen-3-yl)pyridine-3,5-dicarbonitrile]
Ki (hA1AR [1]): 1.01 ± 0.09 nM
Ki (hA2AAR): 55 ± 6 nM
Ki (hA3AR): 221 ± 20 nM
Emax at 1 µM (hA2B AR [2]): 47%
EC50 (hA2B AR [2]): 3.15 ± 0.29 nM
melting point: 239 to 241 °C (dec.)

N#Cc1c(N)nc(SCC(=O)NCc2cnc[nH]2)c(C#N)c1-c1ccco1 [Compound 15, 2-{[6-Amino-3,5-dicyano-4-(furan-2-yl)pyridin-2-yl]sulfanyl}-N-(1H-imidazol-5-ylmethyl)acetamide]
Ki (hA1AR [1]): 378 ± 26 nM
Ki (hA2AAR): 225 ± 18 nM
Ki (hA3AR): 758 ± 66 nM
Emax at 1 µM (hA2B AR [2]): 1%
EC50 (hA2B AR [2]): > 1000 nM
melting point: 269 to 270 °C

N#Cc1c(N)nc(NCCc2c[nH]cn2)c(C#N)c1-c1ccco1 [Compound 13, 2-Amino-4-(furan-2-yl)-6-{[2-(1H-imidazol-4-yl)ethyl]amino}pyridine-3,5-dicarbonitrile]
Ki (hA1AR [1]): 174 ± 14 nM
Ki (hA2AAR): 125 ± 10 nM
inhibition at 1 µM (hA3AR): 6%
Emax at 1 µM (hA2B AR [2]): 9%
EC50 (hA2B AR [2]): > 1000 nM
melting point: 242 °C (dec.)
